One data set relates to SARS-CoV-2. The settings on record: read-out: EC50, anti-SARS-CoV-2; cited from earlier work.
In a further data set the test system is HIV-1. Further details: method as in ref 15 = [15]. As to conditions: read-out: EC50, antiviral activity for HIV-1; cited from earlier work.
The test system of data set [1] is SARS-CoV-2 B.1 lineage isolate. As to the kind of experiment: microbe, parasite or virus in culture. As to conditions: Severe acute respiratory syndrome coronavirus 2, Calu-3, 24 h.
Data set [2] concerns the target Recombinant SARS-CoV-2 PLpro (Severe acute respiratory syndrome coronavirus 2, UniProt P0DTD1). Description: biochemical. The settings on record: FRET, PLpro 1 μM.
Data set [3] has as its target Recombinant SARS-CoV-2 Mpro (Severe acute respiratory syndrome coronavirus 2, UniProt P0DTD1). Description: Protease inhibition FRET assay, Mpro. The settings on record: Mpro 1.5 μM, substrate 50 μM. In kind it is biochemical.
Data set [4] concerns SARS-CoV-2 B.1 lineage isolate.
A further data set can be described thus: in vitro. In kind it is cell-based. The settings on record: human.
Data set [5] can be described thus: In vivo plasma pharmacokinetics in rats. The settings on record: male, Wistar, ip, rat.
The nature of another data set: physchem. Type of data set: physicochemical. The settings on record: water, thermodynamic from solid.
For data set [6] the following is noted: cited from earlier work.
Where [7] appears, read: read-out: Inhibition of Viral Replication in Calu-3 (%).
Where [8] appears, read: read-out: difference in SARS-CoV-2 inhibition compared to compound 4a.

Converted amounts (≈) assume the structure as drawn. Where two headings read alike, the source gives them in different places.

For the molecule `CCC(CC)COC(=O)[C@H](C)N[P@](=O)(OC[C@H]1O[C@@](C#N)(c2ccc3c(N)ncnn23)[C@H](O)[C@@H]1O)Oc1ccccc1` [Remdesivir], the EC50 in the data set with SARS-CoV-2 was 2.49 µM.
For the molecule `COc1cc2[nH]c3ccccc3c2cc1C=O` [O-Methylmukonal], the EC50 in the data set on HIV-1 was 12 µM.
Take `CC(C)(C)[C@H](NC(=O)C(F)(F)F)C(=O)N1C[C@H]2[C@@H]([C@H]1C(=O)N[C@H](C#N)C[C@@H]1CCNC1=O)C2(C)C` [Nirmatrelvir]: in the data set on SARS-CoV-2, the half-maximal effective concentration (EC50) was 0.1 µM.
Take `COc1cccc2c3c([nH]c12)C(=O)c1ccccc1C3=O` [4d, 4-Methoxy-5H-benzo[b]carbazole-6,11-dione]: the values for the inhibition at 10 µM in data set [1] (setting [7]) and in data set [1] (setting [8]) were 86.5% and 8.1%, respectively. In addition, the 50% inhibitory concentration (IC50) is 190.8 ± 0.1 µM in [2] and above 200 µM in data set [3]. Moreover, the “SI (CC50/EC50)” value in [4] is on record as above 141.8. Further, the “selectivity indexes (SI), conclusions” value in [4] was above 50 µM. Moreover, in “in vitro”, the CC50 at 72 h was above 200 µM.
Turning to `COc1ccc2[nH]c3c(c2c1)C(=O)c1ccccc1C3=O` [4b, 2-Methoxy-5H-benzo[b]carbazole-6,11-dione], in data set [1] (setting [7]), the inhibition at 10 µM worked out at 96.2%. For the same molecule, the figures for the 50% inhibitory concentration (IC50) in data set [2] and in [3] were 72.1 ± 0.1 µM and 0.37 ± 0.05 µM, respectively. For the same molecule, in data set [4], the “SI (CC50/EC50)” value was above 119.0. Also, the “selectivity indexes (SI), conclusions” value in data set [4] was above 50 µM. Moreover, the “difference in SARS-CoV-2 inhibition compared to compound 4a” value in [4] (10 µM) is “no significant change”. Further, in the data set “in vitro”, the CC50 at 72 h was above 200 µM.
Turning to `O=C1c2ccccc2C(=O)c2c1[nH]c1ccccc21` [4a, 5H-Benzo[b]carbazole-6,11-dione], the inhibition at 10 µM in data set [1] (setting [7]) was 94.6%. Further, the CL/F in data set [5] (plasma, 5 mg/kg i.p.) was 31.2 mL/min/kg. In addition, the Vd/F in data set [5] (plasma, 5 mg/kg i.p., read-out: Vz/F) turned out to be 98 ± 186 L/kg. Moreover, the half-life in [5] (plasma, 5 mg/kg i.p., read-out: t1/2,z (converted)) is 37 ± 60 h. In [5] (in vivo, 5 mg/kg), the highest concentration (Cmax) was found to be 770 ± 120 nM, the Tmax is 0.333 h and the concentration at 24 h was found to be 120 ± 40 nM. For the same molecule, the IC50 in [2] was 153 ± 0.1 µM. Moreover, the 50% inhibitory concentration (IC50) in data set [3] is 0.11 ± 0.05 µM. In the data set “physchem”, the solubility was determined as 1.43 µg/mL (≈ 5.78 µM). In data set [4], the “SI (CC50/EC50)” value is on record as above 266.7 and the “selectivity indexes (SI), conclusions” value is above 50 µM. The same molecule came in with a 50% cytotoxic concentration (CC50) at 72 h in “in vitro” above 200 µM.
Turning to `COC(=O)N[C@H](C(=O)N[C@@H](Cc1ccccc1)[C@@H](O)CN(Cc1ccc(-c2ccccn2)cc1)NC(=O)[C@@H](NC(=O)OC)C(C)(C)C)C(C)(C)C` [Atazanavir], the “free fraction, experimental data” value in data set [6] is 14%.
As for `COc1cc(OC)c2[nH]c3c(c2c1)C(=O)c1ccccc1C3=O` [4e, 2,4-Dimethoxy-5H-benzo[b]carbazole-6,11-dione], the inhibition at 10 µM stood at 47.1% in data set [1] (setting [7]) and 47.4% in data set [1] (setting [8]).
As for `O=C1c2ccccc2C(=O)c2c1[nH]c1c2ccc2ccccc21` [4i, 7H-Dibenzo[a,h]carbazole-7,12(13H)-dione], the EC50 in [1] was below 4 µM. Besides, the inhibition at 10 µM in [1] (setting [7]) was found to be 85.9%. The IC50 in data set [2] amounted to 148.7 ± 0.6 µM. The half-maximal inhibitory concentration (IC50) in [3] is above 200 µM. Further, in [4], the EC50 was determined as 3.73 ± 0.6 µM; the “SI (CC50/EC50)” value is reported as above 53.7; the “selectivity indexes (SI), conclusions” value is above 50 µM. Also, in “in vitro”, the CC50 at 72 h is above 200 µM and the viability at 72 h, 100 µM is 68%.
For the molecule `CCOC(=O)c1ccc2[nH]c3c(c2c1)C(=O)c1ccccc1C3=O` [4f, Ethyl 6,11-dioxo-6,11-dihydro-5H-benzo[b]carbazole-2-carboxylate], the inhibition at 10 µM in data set [1] (setting [7]) was 64%. Also, the “Inhibition of Viral Replication in Calu-3 (%)” value (from here on “Inhibition … (%)”) in data set [4] (10 µM) amounted to 64%.
With `CC(C)C(=O)OC[C@H]1O[C@@H](n2ccc(NO)nc2=O)[C@H](O)[C@@H]1O` [Molnupiravir], in the data set with SARS-CoV-2, the EC50 was 1.96 µM.
For `Cc1ccc2[nH]c3c(c2c1)C(=O)c1ccccc1C3=O` [4c, 2-Methyl-5H-benzo[b]carbazole-6,11-dione], the “Inhibition … (%)” value in data set [4] (10 µM) is on record as “ineffective”.
`O=C1c2ccccc2C(=O)c2c1[nH]c1ccc(F)cc21` [4g, 2-Fluoro-5H-benzo[b]carbazole-6,11-dione]: the inhibition at 10 µM in [1] (setting [7]) was found to be 69.4%. For the same molecule, the “Inhibition … (%)” value in data set [4] (10 µM) worked out at 69%.

As usually defined, the EC50 is the concentration that produces a half-maximal response. A word on the inhibition: it is the drop in the measured response relative to a control, in per cent. By IC50 is commonly meant the midpoint of a concentration-inhibition curve. A word on the CC50: it is the concentration that lowers cell viability or growth by half. Higher therefore signals lower toxicity to the cells. The CL/F is clearance divided by bioavailability, as obtained after extravascular dosing. One may read the Cmax as the highest concentration seen after dosing. For orientation: Tmax means the time at which the peak concentration occurs. One may read the solubility as the concentration that dissolves in the medium under given conditions. A higher solubility goes with a readily soluble substance. For orientation: viability means the share of living cells, or the viability signal relative to a control. The low end stands for a greater loss of cells, the high end for better survival.

These data come from article PMC11598835 (Viruses, 2024).
